Test results: patent US8101766B2, “Crystalline form of a biphenyl compound” (Theravance, Inc., priority 2004, dated 2012)

Key:
[1] = molecular target: T1, cM5 receptor (Pan troglodytes, UniProt Q5IS53); assay: Blockade of agonist-mediated calcium release via FLIPR assay (cM5); assay type: cell-based, chimpanzee; settings: CHO cells stably expressing cM5
T1 construct: expressed in transfected cells
T1 sequence (Q5IS53 1-532): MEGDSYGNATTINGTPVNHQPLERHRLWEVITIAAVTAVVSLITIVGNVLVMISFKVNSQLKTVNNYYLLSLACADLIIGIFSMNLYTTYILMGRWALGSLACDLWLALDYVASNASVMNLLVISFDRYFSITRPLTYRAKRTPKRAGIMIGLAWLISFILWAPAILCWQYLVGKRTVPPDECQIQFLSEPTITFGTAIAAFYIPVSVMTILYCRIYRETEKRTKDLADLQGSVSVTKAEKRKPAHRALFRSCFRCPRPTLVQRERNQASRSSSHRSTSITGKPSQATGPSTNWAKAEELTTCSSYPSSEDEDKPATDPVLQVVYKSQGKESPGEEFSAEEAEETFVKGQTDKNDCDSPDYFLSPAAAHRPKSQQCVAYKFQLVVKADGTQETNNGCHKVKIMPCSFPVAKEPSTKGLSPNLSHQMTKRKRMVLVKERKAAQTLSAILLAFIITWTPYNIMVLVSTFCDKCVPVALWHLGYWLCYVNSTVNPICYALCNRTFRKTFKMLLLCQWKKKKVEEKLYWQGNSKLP
Excerpt: (§1) B. Blockade of Agonist-Mediated Calcium Release Via FLIPR Assays
(§2) Muscarinic receptor subtypes (M1, M3 and M5 receptors), which couple to Gq proteins, activate the phospholipase C (PLC) pathway upon agonist binding to the receptor. As a result, activated PLC hydrolyzes phosphatyl inositol diphosphate (PIP2) to diacylglycerol (DAG) and phosphatidyl-1,4,5-triphosphate (IP3), which in turn generates calcium release from intracellular stores, i.e., endoplasmic and sarcoplasmic reticulum. […] This fluorescence event is measured in real time by the FLIPR, which detects the change in fluorescence from a monolayer of cells cloned with human M1 and M3, and chimpanzee M5 receptors. Antagonist potency can be determined by the ability of antagonists to inhibit agonist-mediated increases in intracellular calcium. […]
(§3) To determine antagonist potency, the dose-dependent stimulation of intracellular Ca^2+ release for oxotremorine was first determined so that antagonist potency can later be measured against oxotremorine stimulation at an EC90 concentration. […]
(§4) The parameters used for the FLIPR were: exposure length of 0.4 seconds, laser strength of 0.5 watts, excitation wavelength of 488 nm, and emission wavelength of 550 nm. Baseline was determined by measuring the change in fluorescence for 10 seconds prior to addition of agonist. […]

[2] = molecular target: T2, hM1 receptor (Homo sapiens, UniProt P11229); assay: Blockade of agonist-mediated calcium release via FLIPR assay (hM1); assay type: cell-based; settings: CHO cells stably expressing hM1
T2 construct: expressed in transfected cells
T2 sequence (P11229 1-460): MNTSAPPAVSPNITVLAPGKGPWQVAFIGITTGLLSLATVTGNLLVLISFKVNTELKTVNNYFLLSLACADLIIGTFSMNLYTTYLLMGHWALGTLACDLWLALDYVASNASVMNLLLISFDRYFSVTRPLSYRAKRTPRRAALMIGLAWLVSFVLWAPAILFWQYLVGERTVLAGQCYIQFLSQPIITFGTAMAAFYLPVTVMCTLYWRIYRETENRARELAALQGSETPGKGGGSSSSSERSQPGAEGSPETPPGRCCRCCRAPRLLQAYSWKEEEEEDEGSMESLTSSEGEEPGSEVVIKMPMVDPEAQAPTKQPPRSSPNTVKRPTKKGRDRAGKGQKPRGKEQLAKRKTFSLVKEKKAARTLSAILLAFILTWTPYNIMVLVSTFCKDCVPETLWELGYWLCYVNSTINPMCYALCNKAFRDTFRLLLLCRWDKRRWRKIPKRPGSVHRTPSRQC
Excerpt: as §1, §2, §3, §4

[3] = molecular target: β2 adrenergic receptor (Homo sapiens, UniProt P07550); assay: Whole-cell cAMP Flashplate assay in CHO cell lines heterologously expressing human β2 adrenergic receptor; assay type: cell-based; set-up: expressed in transfected cells; settings: CHO-K1 cells expressing cloned human β2
Experimental: Cells were rinsed with PBS and detached in dPBS (Dulbecco's Phosphate Buffered Saline, without CaCl2 and MgCl2) containing 2 mM EDTA or Trypsin-EDTA solution (0.05% trypsin/0.53 mM EDTA). […] Test compounds (10 mM in DMSO) were diluted into PBS containing 0.1% BSA in Beckman Biomek-2000 and tested at 11 different concentrations ranging from 100 μM to 1 pM. […] Data were analyzed by nonlinear regression analysis with the GraphPad Prism Software package (GraphPad Software, Inc., San Diego, Calif.) with the sigmoidal equation.

β2 adrenergic receptor, sequence (P07550 whole entry): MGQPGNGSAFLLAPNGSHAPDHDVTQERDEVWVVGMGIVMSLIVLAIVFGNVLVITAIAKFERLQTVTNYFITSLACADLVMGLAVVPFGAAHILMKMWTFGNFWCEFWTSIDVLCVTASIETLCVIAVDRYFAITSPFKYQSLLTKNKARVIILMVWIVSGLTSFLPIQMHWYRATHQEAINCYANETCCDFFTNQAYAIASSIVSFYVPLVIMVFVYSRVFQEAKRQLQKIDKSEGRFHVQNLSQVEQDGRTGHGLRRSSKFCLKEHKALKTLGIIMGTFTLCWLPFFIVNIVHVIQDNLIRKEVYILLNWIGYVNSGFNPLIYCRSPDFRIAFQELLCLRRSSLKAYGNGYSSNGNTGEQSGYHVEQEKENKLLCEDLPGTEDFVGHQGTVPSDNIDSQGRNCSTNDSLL

COc1cc(NC(=O)CCN2CCC(OC(=O)Nc3ccccc3-c3ccccc3)CC2)c(Cl)cc1CNC[C@H](O)c1ccc(O)c2[nH]c(=O)ccc12 [compound of formula I, biphenyl-2-ylcarbamic acid 1-[2-(2-chloro-4-{[(R)-2-hydroxy-2-(8-hydroxy-2-oxo-1,2-dihydroquinolin-5-yl)ethylamino]methyl}-5-methoxyphenylcarbamoyl)ethyl]piperidin-4-yl ester]
< 10 nM: Ki [1] | Ki [2] | EC50 [3]
